Like-named read-outs stand apart in the source and are kept apart here.
Columns and labels:
[1] = target: full-length human PRMT8 isoform 1 (Homo sapiens, UniProt Q9NR22); assay: PRMT8 Biochemical Assay (3H-SAM Flashplate, peptide substrate); settings: read-out: Biochemical IC50 PRMT8
Text: General Materials. S-adenosylmethionine (SAM), S-adenosylhomocysteine (SAH), bicine, Tween20, dimethylsulfoxide (DMSO), bovine skin gelatin (BSG), isopropyl-β-D-thiogalactopyranoside (IPTG), and Tris(2-carboxyethyl)phosphine hydrochloride solution (TCEP) were purchased from Sigma-Aldrich at the highest level of purity possible. ^3H-SAM was purchase from American Radiolabeled Chemicals with a specific activity of 80 Ci/mmol. 384-well streptavidin Flashplates were purchased from PerkinElmer.
Substrates. Peptide representative of human histone H4 residues 31-45 was synthesized with an N-terminal linker-affinity tag motif and a C-terminal amide cap by 21st Century Biochemicals. The peptide was purified by high-performance liquid chromatography (HPLC) to greater than 95% purity and confirmed by liquid chromatography mass spectrometry (LC-MS). The sequence was Biot-Ahx-[…]-amide (SEQ ID NO.:8).
The resulting construct encodes an N-terminal GST tag and a thrombin cleavage sequence ([…] […] […] […] SPEF) (SEQ ID NO.:9) fused directly to Met 1 of PRMT8.
Protein Expression. E. coli (BL21(DE3) Gold, Stratagene) made competent by the CaCl2) method were transformed with the PRMT8 construct and ampicillin selection. Protein over-expression was accomplished by growing the PRMT8 expressing E. coli clone and inducing expression with 0.3 mM IPTG at 16° C. The culture was grown for 12 hours, harvested by centrifugation, and stored at −80° C. for purification.
Protein Purification. […] GST-tagged PRMT8 was eluted with 50 mM Tris, 2 mM glutathione, pH 7.8. Pooled fractions were cleaved by thrombin (10U) and dialysed in buffer A. GST was removed by reloading the cleaved protein sample onto glutathione sepharose column and PRMT8 was collected in the flow-through fractions. PRMT8 was purified further by ceramic hydroxyapatite chromatography. The column was washed with 50 mM phosphate buffer, 100 mM NaCl, 5% glycerol, 5 mM β-mercaptoethanol, pH 7.8 and PRMT8 was eluted by 100 mM phosphate in the same buffer. Protein was concentrated and buffer was exchanged to 50 mM Tris, 300 mM NaCl, 10% glycerol, 5 mM β-mercaptoethanol, pH 7.8 by ultrafiltration. The purity of recovered protein was 89%.
General Procedure for PRMT8 Enzyme Assays on Peptide Substrates. The assays were all performed in a buffer consisting of 20 mM Bicine (pH=7.6), 1 mM TCEP, 0.005% BSG, and 0.002% Tween 20, prepared on the day of use. Compounds in 100% DMSO (1 ul) were spotted into a polypropylene 384-well V-bottom plates (Greiner) using a Platemate Plus outfitted with a 384-channel head (Thermo Scientific). DMSO (1 ul) was added to Columns 11, 12, 23, 24, rows A-H for the maximum signal control and 1 ul of SAH, a known product and inhibitor of PRMT8, was added to columns 11, 12, 23, 24, rows I-P for the minimum signal control. A cocktail (40 ul) containing the PRMT8 enzyme was added by Multidrop Combi (Thermo-Fisher). The compounds were allowed to incubate with PRMT8 for 30 min at room temperature, then a cocktail (10 ul) containing ^3H-SAM and peptide was added to initiate the reaction (final volume=51 ul). The final concentrations of the components were as follows: PRMT8 was 1.5 nM, ^3H-SAM was 50 nM, non-radiolabeled SAM was 550 nM, peptide was 150 nM, SAH in the minimum signal control wells was 1 mM, and the DMSO concentration was 2%. The assays were stopped by the addition of non-radiolabeled SAM (10 ul) to a final concentration of 400 uM, which dilutes the ^3H-SAM to a level where its incorporation into the peptide substrate is no longer detectable. 50 ul of the reaction in the 384-well polypropylene plate was then transferred to a 384-well Flashplate and the biotinylated peptides were allowed to bind to the streptavidin surface for at least 1 hour before being washed once with 0.1% Tween20 in a Biotek ELx405 plate washer. […]

[2] = system: mono-methyl arginine in RKO cells; assay: RKO Methylation Assay, In Cell Western (ICW) for detection of mono-methyl arginine and DNA content; type: cell-based; settings: Homo sapiens, RKO, 72 h, RKO cells, read-out: In Cell Western EC30
Text: RKO adherent cells were purchased from ATCC (American Type Culture Collection), Manassas, Va., USA. DMEM/Glutamax medium, penicillin-streptomycin, heat inactivated fetal bovine serum, 0.05% trypsin and D-PBS were purchased from Life Technologies, Grand Island, N.Y., USA. Odyssey blocking buffer, 800 CW goat anti-rabbit IgG (H+L) antibody, and Licor Odyssey infrared scanner were purchased from Licor Biosciences, Lincoln, Nebr., USA. Mono-methyl arginine antibody was purchased from Cell Signaling Technology, Danvers, Mass., USA. Methanol was purchased from VWR, Franklin, Mass., USA. 10% Tween 20 was purchased from KPL, Inc., Gaithersburg, Md., USA. DRAQ5 was purchased from Biostatus Limited, Leicestershire, UK.
RKO adherent cells were maintained in growth medium (DMEM/Glutamax medium supplemented with 10% v/v heat inactivated fetal bovine serum and 100 units/mL penicillin-streptomycin) and cultured at 37° C. under 5% CO2.
Cell treatment, In Cell Western (ICW) for detection of mono-methyl arginine and DNA content. […] Compound (100 nL) from a 96-well source plate was added directly to 384 well cell plate. Plates were incubated at 37° C., 5% CO2 for 72 hours. After three days of incubation, plates were brought to room temperature outside of the incubator for ten minutes and blotted on paper towels to remove cell media. 50 μL of ice cold 100% methanol was added directly to each well and incubated for 30 min at room temperature. After 30 min, plates were transferred to a Biotek EL406 plate washer and washed 2 times with 100 μL per well of wash buffer (1×PBS). Next 60 μL per well of Odyssey blocking buffer (Odyssey Buffer with 0.1% Tween 20 (v/v)) were added to each plate and incubated 1 hour at room temperature. Blocking buffer was removed and 20 μL per well of primary antibody was added (mono-methyl arginine diluted 1:200 in Odyssey buffer with 0.1% Tween 20 (v/v)) and plates were incubated overnight (16 hours) at 4° C. Plates were washed 5 times with 100 μL per well of wash buffer. […] The plates were washed 5 times with 100 μL per well wash buffer then 2 times with 100 μL per well of water. Plates were allowed to dry at room temperature then imaged on the Licor Odyssey machine which measures integrated intensity at 700 nm and 800 nm wavelengths. Both 700 and 800 channels were scanned.
Calculations: First, the ratio for each well was determined by:
Each plate included fourteen control wells of DMSO only treatment (minimum activation) as well as fourteen control wells for maximum activation treated with 20 μM of a reference compound. The average of the ratio values for each control type was calculated and used to determine the percent activation for each test well in the plate. Reference compound was serially diluted three-fold in DMSO for a total of nine test concentrations, beginning at 20 μM. Percent activation was determined and EC30 curves were generated using triplicate wells per concentration of compound.

[3] = single experiment or average of multiple experiments
[4] = 72 hours compound incubation, mono-methyl arginine signal normalised to DNA content (DRAQ5), percent activation vs 20 μM reference compound
[5] = 72 hours incubation, mono-methyl arginine signal normalised to DNA content, single experiment or average of multiple experiments

Chain of full-length human PRMT8 isoform 1 (Q9NR22 whole entry, canonical isoform): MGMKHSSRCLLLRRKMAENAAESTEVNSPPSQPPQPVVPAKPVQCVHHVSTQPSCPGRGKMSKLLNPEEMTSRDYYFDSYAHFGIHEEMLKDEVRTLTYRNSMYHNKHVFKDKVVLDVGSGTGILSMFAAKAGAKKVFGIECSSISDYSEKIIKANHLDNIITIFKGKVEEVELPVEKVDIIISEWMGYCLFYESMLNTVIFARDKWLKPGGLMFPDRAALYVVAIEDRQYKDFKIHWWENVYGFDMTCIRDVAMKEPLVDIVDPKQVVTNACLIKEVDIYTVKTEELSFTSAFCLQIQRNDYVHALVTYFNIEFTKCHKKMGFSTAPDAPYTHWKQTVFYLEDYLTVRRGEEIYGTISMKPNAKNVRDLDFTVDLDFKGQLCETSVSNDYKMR

IC50 [1] [nM]	IC50 [1, 3] [nM]	SMILES	EC30 [2, 4] [nM]	EC30 [2, 5] [nM]
< 100	47.3	CNCCN(C)Cc1c[nH]nc1[C@H]1CC[C@H](O)C2(CCCCC2)C1 (racemic) [Compound 184, (1S,4S)-4-[4-({methyl[2-(methylamino)ethyl]amino}methyl)-1H-pyrazol-3-yl] spiro[5.5]undecan-1-ol]	< 3000	458
< 100	39.4	CNCCN(C)Cc1c[nH]nc1[C@H]1CC[C@@H](O)C2(CCCCC2)C1 (single isomer, unassigned) [Compound 183]	< 3000	319
101 to 1000	760	CN(CCN)Cc1c[nH]nc1CCc1ccccc1 [Compound 9]	3010 to 12000	5610
< 100	11.6	CNCCN(C)Cc1c[nH]nc1[C@H]1CC[C@]2(CCC(C)(C)O2)CC1 [Compound 104]	< 3000	11.7
< 100	55.4	CNCCN(C)Cc1c[nH]nc1[C@H]1CC[C@@H](N(CC2CCOCC2)C(=O)CC(C)C)CC1 [Compound 107]		
< 100	69.2	CNCCN(C)Cc1c[nH]nc1C1CCCC(COCCOC)C1 (stereo not drawn) [Compound 112]		
101 to 1000	340	CNCCN(C)Cc1c[nH]nc1C1CCC(N(CC(C)C)C(=O)CC2CCOCC2)CC1 (stereo not drawn) [Compound 114]		
101 to 1000	143	CNCCN(C)Cc1c[nH]nc1C1CCC(=O)N(CCC(C)C)C1 (stereo not drawn) [Compound 117]		
< 100	32.6	CNCCN(C)Cc1c[nH]nc1C1CCC2(CC1)OC(C)CC(C)O2 (stereo not drawn) [Compound 121]		
< 100	4.5	CNCCN(C)Cc1c[nH]nc1C1CCC2(CC1)CCC(F)(F)CC2 [Compound 130]		
1010 to 3000	1970	CCCOC1CC(OCCC)CC(c2n[nH]cc2CN(C)CCNC)C1 (stereo not drawn) [Compound 131]		
1010 to 3000	1430	CNCCN(C)Cc1c[nH]nc1C1CC(COC)CC(COC)C1 (stereo not drawn) [Compound 138]		
		CNCCN(C)Cc1c[nH]nc1C1CCC2(CC1)CN(CC(C)C)C(=O)N2C (stereo not drawn) [Compound 145]	< 3000	2300
		CNCCN(C)Cc1c[nH]nc1C1CCC2(CC1)CC(=O)N(Cc1ccc(OC)cc1)C2 (stereo not drawn) [Compound 146]	< 3000	160
		CNCCN(C)Cc1c[nH]nc1C1CCC2(CC1)CNC(=O)C2 (stereo not drawn) [Compound 147]	3010 to 12000	8600
		CC[C@H]1CC[C@H](c2n[nH]cc2CN(C)CCNC)CC1 [Compound 148]	< 3000	16
		CNCCN(C)Cc1c[nH]nc1C1CCC(C)CC1 (stereo not drawn) [Compound 149]	< 3000	106
		CNCCN(C)Cc1c[nH]nc1C1CCC2(CC1)OCC(C(C)C)CO2 (stereo not drawn) [Compound 150]	< 3000	256

IC50 [1] [nM]	IC50 [1, 3] [nM]	SMILES	EC30 [2, 4] [nM]	EC30 [2, 5] [nM]
		CNCCN(C)Cc1c[nH]nc1C1CCC2(CC1)CN(C)C(=O)N2CC(C)C (stereo not drawn) [Compound 151]	< 3000	705
		CNCCN(C)Cc1c[nH]nc1C1CCC2(CC1)CCN(C)C2=O (stereo not drawn) [Compound 152]	< 3000	119
		CNCCN(C)Cc1c[nH]nc1C1CCC(OCC(C)C)CC1 (stereo not drawn) [Compound 153]	< 3000	129
		CCN1CC2(CCC(c3n[nH]cc3CN(C)CCNC)CC2)N(C)C1=O (stereo not drawn) [Compound 154]	< 3000	1790
		CNCCN(C)Cc1c[nH]nc1[C@H]1CC[C@]2(CC1)CC(=O)N(CC(C)C)C2 [Compound 155]	3010 to 12000	4080
		CNCCN(C)Cc1c[nH]nc1[C@H]1CC[C@@]2(CC1)CC(=O)N(CC(C)C)C2 [Compound 156]	< 3000	1360
		CNCCN(C)Cc1c[nH]nc1C1CCC2(CC1)CC(=O)N(C)C2 (stereo not drawn) [Compound 157]	< 3000	2490
		CCOC1CC(OCC)CC2(CCC(c3n[nH]cc3CN(C)CCNC)CC2)C1 (stereo not drawn) [Compound 159]	< 3000	63
		CNCCN(C)Cc1c[nH]nc1C1CCC2(CC1)OCCCO2 [Compound 160]	< 3000	166
< 100	23.7	CNCCN(C)Cc1c[nH]nc1C1CCC2(CC1)NC(=O)N(C)C2=O (stereo not drawn) [Compound 170]		
		CNCCN(C)Cc1c[nH]nc1C1CCC2(CC1)C(=O)N(C)C(=O)N2C (stereo not drawn) [Compound 171]	< 3000	192
		CNCCN(C)Cc1c[nH]nc1C1CCC2(CC1)CN(C)C(=O)N2C (stereo not drawn) [Compound 172]	3010 to 12000	4460
		CNCCN(C)Cc1c[nH]nc1C1=CCC(CCOC)(CCOC)CC1 [Compound 173]	< 3000	408
		CNCCN(C)Cc1c[nH]nc1C1CCC(CCOC)(CCOC)CC1 [Compound 174]	< 3000	85
		CNCCN(C)Cc1c[nH]nc1[C@H]1CC[C@H](C(C)C)CC1 [Compound 180]	< 3000	19
		CNCCN(C)Cc1c[nH]nc1[C@H]1CC[C@@H](C(C)C)CC1 [Compound 181]	< 3000	107
< 100	89.6	CNCCN(C)Cc1c[nH]nc1[C@H]1CC[C@H](OCCOc2ccc(OC)cc2)CC1 [Compound 186]		
